Results on six compounds are retold here after US20250345284A1, “LIPID NANOPARTICLE (LNP) COMPOSITIONS AND METHODS OF USE THEREOF” (The Trustees Of The University of Pennsylvania, priority 2021, published 2025).

Data set [1] can be described thus: Z-average diameter and polydispersity index by dynamic light scattering (Zetasizer Nano). As to conditions: LNPs with 12.5%, 25% and 50% substitution of the named hydroxycholesterol. In kind it is physicochemical.
Data set [2] is described as follows: Stability of 100% hydroxycholesterol substitution LNPs over 28 days. The settings on record: 100% substitution of hydroxycholesterol for cholesterol, vs S2.
Description: FIG. 8B depicts measurements of z-average diameter, PDI, mRNA concentration, and encapsulation efficiency for S2 LNPs and LNP formulations with 100% cholesterol substitution taken over 28 days to assess LNP stability. […] Error bars denote standard deviation. FIG. 8C depicts the pKa, zeta potential, z-average diameter, and PDI measurements for the exemplary LNPs of the present disclosure. n=3. Error bars denote standard deviation.
Characterization parameters assessed over the 28-day period include z-average diameter, PDI, mRNA concentration, and encapsulation efficiency (Table 3).

Turning to `CC(C)CCC[C@@H](C)[C@H]1CC[C@H]2[C@@H]3[C@H](O)C=C4C[C@@H](O)CC[C@]4(C)[C@H]3CC[C@]12C` [A1, 7α-hydroxycholesterol], in data set [1], the “PDI (in words)” value is “remained within expected ranges” and the “z-average diameter (in words)” value is recorded as “remained within expected ranges”. Also, in data set [2], the “stability (all characterization parameters)” value (shortened to “stability”) is reported as “comparable on all parameters on all days to S2”.
With `CC(C)CCC[C@@H](C)[C@H]1CC[C@H]2[C@@H]3[C@@H](O)C=C4C[C@@H](O)CC[C@]4(C)[C@H]3CC[C@]12C` [A2, 7β-hydroxycholesterol], in data set [1], the “PDI (in words)” value was “remained within expected ranges” and the “z-average diameter (in words)” value is recorded as “remained within expected ranges”. Also, the “stability” value in data set [2] is reported as “comparable on all parameters on all days to S2”.
With `CC(C)CCC[C@@H](C)[C@H]1CC[C@H]2[C@@H]3CC=C4C[C@@H](O)CC[C@]4(CO)[C@H]3CC[C@]12C` [A3, 19-hydroxycholesterol], in data set [1], the “PDI (in words)” value is recorded as “remained within expected ranges” and the “z-average diameter (in words)” value was “remained within expected ranges”.
Turning to `CC(C)CCC[C@](C)(O)[C@H]1CC[C@H]2[C@@H]3CC=C4C[C@@H](O)CC[C@]4(C)[C@H]3CC[C@@]21C` [B1, 20 (S)-hydroxycholesterol], in data set [1], the “PDI (in words)” value is recorded as “remained within expected ranges” and the “z-average diameter (in words)” value is given as “remained within expected ranges”. Further, the “stability” value in data set [2] is given as “comparable on all parameters on all days to S2”.
`CC(C)[C@@H](O)CC[C@@H](C)[C@H]1CC[C@H]2[C@@H]3CC=C4C[C@@H](O)CC[C@]4(C)[C@H]3CC[C@]12C` [B2, 24 (S)-hydroxycholesterol]: in data set [1], the “PDI (in words)” value is on record as “more polydisperse” and the “z-average diameter (in words)” value was “increased particle diameters”.
In the same order, the values of `C[C@H](CCCC(C)(C)O)[C@H]1CC[C@H]2[C@@H]3CC=C4C[C@@H](O)CC[C@]4(C)[C@H]3CC[C@]12C` [B3, 25-hydroxycholesterol] are “more polydisperse” and “increased particle diameters”.
